Measured values reported in patent US9205046B2, “Enhanced stability of inverse thermal gelling composite hydrogels” (The Governing Council of the University of Toronto, priority 2005, dated 2015).
Entries after “also recorded” stand apart in the source; their conditions may differ.

Columns and labels:
[1] = In vitro drug release from HAMC hydrogels and composites; type: physicochemical; details: for burst release from PLGA particles in composite versus free particles: composite 2:3 HMW HAMC
Method: Release profiles of each particle encapsulated drug were obtained by depositing approximately 150 mg of drug loaded 2:3 HMW HAMC into polypropylene sample tubes, warming to 37° C., and adding 600 μL warm aCSF. […] Particle loads were typically 30-40 mg PLGA per gram of composite. […] All sample aliquots were immediately frozen and stored at −20° C. until analysis. […] Each sample was thawed immediately prior to assay and clear supernatant analyzed for dissolved drug.

[2] = Drug diffusivity in HMW HAMC; type: physicochemical; details: in 2:3 HMW HAMC
Description: The diffusivity of a given drug in HMW HAMC, D, was normalized to its diffusivity in water, Do, to determine the impact of HMW HAMC on molecular diffusion [N. A. Peppas, C. T. Reinhart, Solute diffusion in swollen membranes. 1. A new theory. J. Membr. Sci. 15 (3) (1983) 275-287. Approximations of D for NBQX, α-chymotrypsin, and IgG in HMW HAMC were estimated according to the one dimensional, unidirectional, thin film approximation for non-swelling samples at short times [J. Crank, The Mathematics of Diffusion, Clarendon Press, Oxford, 1956.]. Normalized diffusion coefficients were then determined with respect to previously reported values of Do according to:
[formula] Where Mt/M∞ is the cumulative mass of drug detected at time, t, divided by the total mass released and l is the sample thickness.
Approximately 100 mg of HAMC with a drug loading of 100-1000 μg/mL was deposited into a cylindrical sample tube to yield a gel with thickness of 0.3 cm and one exposed surface. Samples were warmed to 37° C. and combined with 900 μL of warm aCSF. The buffer was sampled with total replacement at 0.5, 1, 2, and 5 hours and analyzed and described below.

[3] = Characterization of drug loaded PLGA particles; type: physicochemical; details: laser diffraction or dynamic light scattering
Method: PLGA microparticle synthesis was optimized for each factor encapsulated and thus synthesis varied slightly for each factor, described below for EGF, dbcAMP, IgG and α-chymotrypsin. Microparticle size was determined by laser diffraction (Mastersizer 2000™, Malvern Instruments, Malvern, UK): nanoparticle size was determined by dynamic light scattering (Zetasizer Nano ZS™, Malvern Instruments). Encapsulation efficiency was defined as the fraction of drug detected per unit mass of particle compared to the theoretical maximum. Particle yield is the mass of recovered particulate PLGA adjusted for drug content, divided by the initial PLGA mass. Drug loading is the mass fraction of drug in the particles expressed as microgram of drug per milligram of particles.
EGF content was determined by degrading the PLGA in 1 M NaOH for 24 h at 37° C., centrifuging the resulting suspension and assaying the supernatant for total protein using the BCA assay.
dbcAMP content was determined by DCM/water solvent extraction. PLGA was dissolved in DCM and extracted 3×. Aqueous dbcAMP concentration was determined by UV absorbance at 273 nm on a Nanodrop ND-1000™ (Thermo Fisher Scientific).
Protein content was determined based on a method by Wong [Wong, H. M., Wang, J. J., and Wang, C, In Vitro Sustained Release of Human Immunoglobulin G from Biodegradable Microspheres. Ind. Eng. Chem. Res., 2001. 40: p. 933-948]. […]

[4] = test system: mature blood vessels in the dorsal horns of the injured spinal cord; test: Intrathecal FGF2 delivery with composite HAMC after compressive spinal cord injury, SMI-71 blood vessel count; type: in vivo, Sprague Dawley rats; details: rat, moderate compressive SCI at T2, 10 μl intrathecal composite 1:3 HMW HAMC with FGF2 PLGA nanoparticles, 28 days
Method: Physical hydrogel blends of hyaluronan (HA) and methyl cellulose (MC) were prepared in aCSF at 1 wt % 2600 kg/mol HA and 3 wt % 300 kg/mol MC as previously reported (1:3 HMW HAMC [M. D. Baumann, C. E. Kang, J. C. Stanwick, Y. Wang, H. Kim, Y. Lapitsky, and M. S. Shoichet, An injectable drug delivery platform for sustained combination therapy, J Control Release. (2009)]. Briefly, MC and HA were sequentially mechanically dispersed in aCSF and allowed to dissolve at 4° C. To form composite 1:3 HMW HAMC, slurries of particles were added together for a final concentration of 100 mg/mL. PLGA nanoparticles were prepared from a w/o/w double emulsion as previously described [[…]], either as blank nanoparticles or encapsulating FGF2.
All animal procedures were performed in accordance with the Guide to the Care and Use of Experimental Animals (Canadian Council on Animal Care) and protocols were approved by the Animal Care Committee of the Research Institute of the University Health Network. […] Blood vessels were then counted in the dorsal horns of the spinal cord (See FIG. 8). Statistical significance was determined by ANOVA followed by Tukey's post-hoc test.

duration of in vitro release of PLGA particle encapsulated drug ([1]; PLGA particles dispersed in composite 2:3 HMW HAMC)	Compound	release mechanism of dissolved drug ([1]; dissolved in 2:3 HMW HAMC)	normalized diffusion coefficient [2]	Particle Size (μm) [3]	burst release from PLGA particles in composite versus free particles [1]	mature blood vessels in the dorsal horns (angiogenesis) [4]	time to complete in vitro release of dissolved drug ([1]; dissolved in 2:3 HMW HAMC, aCSF, 37 °C)
	2,3-Dioxo-6-nitro-1,2,3,4-tetrahydrobenzo[f]quinoxaline-7-sulfonamide disodium salt [NBQX, reference compound]	diffusion limited	~0.1				
28 days	CCCC(=O)Nc1ncnc2c1ncn2[C@@H]1O[C@@H]2COP(=O)([O-])O[C@H]2[C@H]1OC(=O)CCC.[Na+] [dbcAMP, N^6,2′-O-dibutyryladenosine 3′,5′-cyclic monophosphate sodium salt, reference compound]			37 ± 14 μm	reduction in burst release		
	EGF: Recombinant human epidermal growth factor			10 ± 2 μm	atypical behaviour		
	FGF-2: Recombinant human basic fibroblast growth factor	diffusion limited	~0.1			results in angiogenesis; also recorded: enhanced blood vessels	≤ 4 days
